Assay results from patent publication US9643974B2, “Amino-substituted imidazopyridazines” (Bayer Intellectual Property GmbH, priority 2011, dated 2017).

Columns and labels:
human full-lengt MKNK1 = target: T1, human full-lengt MKNK1 (Homo sapiens, UniProt Q9BUB5, T385D); test: MKNK1 kinase assay (MKNK1 TR-FRET assay); format: biochemical; conditions: ATP final conc. 10 μM, 15 min preincubation, 45 min reaction at 22° C.
T1 construct: purchased Carna Biosciences 02-145; host or cells: insect cells (baculovirus expression system)
T1 sequence (Q9BUB5 1-424 isoform Q9BUB5-2 T344D): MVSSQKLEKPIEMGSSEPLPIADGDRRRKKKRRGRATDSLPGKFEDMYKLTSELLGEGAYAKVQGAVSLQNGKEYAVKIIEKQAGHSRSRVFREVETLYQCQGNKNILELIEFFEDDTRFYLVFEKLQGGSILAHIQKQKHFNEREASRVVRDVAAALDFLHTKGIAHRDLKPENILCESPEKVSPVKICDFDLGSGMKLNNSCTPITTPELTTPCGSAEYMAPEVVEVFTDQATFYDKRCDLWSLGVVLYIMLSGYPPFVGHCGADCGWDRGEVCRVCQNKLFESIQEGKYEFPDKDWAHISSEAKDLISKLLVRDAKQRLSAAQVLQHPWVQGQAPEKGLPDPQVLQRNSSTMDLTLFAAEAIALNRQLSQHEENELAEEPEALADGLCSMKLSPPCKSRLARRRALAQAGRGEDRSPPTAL
From the text: MKNK1-inhibitory activity of compounds of the present invention was quantified employing the MKNK1 TR-FRET assay as described in the following paragraphs.
(§1) A recombinant fusion protein of Glutathione-S-Transferase (GST, N-terminally) and human full-lengt MKNK1 (amino acids 1-424 and T344D of accession number BAA 19885.1), expressed in insect cells using baculovirus expression system and purified via glutathione sepharose affinity chromatography, was purchased from Carna Biosciences (product no 02-145) and used as enzyme. As substrate for the kinase reaction the biotinylated peptide biotin-Ahx-IKKRKLTRRKSLKG (C-terminus in amide form) was used which can be purchased e.g. form the company Biosyntan (Berlin-Buch, Germany).
(§2) For the assay 50 nL of a 100 fold concentrated solution of the test compound in DMSO was pipetted into a black low volume 384 well microtiter plate (Greiner Bio-One, Frickenhausen, Germany), 2 μL of a solution of MKNK1 in aqueous assay buffer [50 mM HEPES pH 7.5, 5 mM magnesium chloride, 1.0 mM dithiothreitol, 0.005% (v/v) Nonidet-P40 (Sigma)] was added and the mixture was incubated for 15 min at 22° C. to allow pre-binding of the test compounds to the enzyme before the start of the kinase reaction. Then the kinase reaction was started by the addition of 3 μL of a solution of adenosine-tri-phosphate (ATP, 16.7 μM=>final conc. in the 5 μL assay volume is 10 μM) and substrate (0.1 μM=>final conc. in the 5 μL assay volume is 0.06 μM) in assay buffer and the resulting mixture was incubated for a reaction time of 45 min at 22° C. The concentration of MKNK1 was adjusted depending of the activity of the enzyme lot and was chosen appropriate to have the assay in the linear range, typical concentrations were in the range of 0.05 μg/ml. The reaction was stopped by the addition of 5 μL of a solution of TR-FRET detection reagents (5 nM streptavidine-XL665 [Cisbio Bioassays, Codolet, France] and 1 nM anti-ribosomal protein S6 (pSer236)-antibody from Invitrogen [#44921G] and 1 nM LANCE EU-W1024 labeled ProteinG [Perkin-Elmer, product no. AD0071]) in an aqueous EDTA-solution (100 mM EDTA, 0.1% (w/v) bovine serum albumin in 50 mM HEPES pH 7.5).
The resulting mixture was incubated for 1 h at 22° C. to allow the formation of complex between the phosphorylated biotinylated peptide and the detection reagents. Subsequently the amount of phosphorylated substrate was evaluated by measurement of the resonance energy transfer from the Eu-chelate to the streptavidine-XL. Therefore, the fluorescence emissions at 620 nm and 665 nm after excitation at 350 nm were measured in a TR-FRET reader, e.g. a Rubystar (BMG Labtechnologies, Offenburg, Germany) or a Viewlux (Perkin-Elmer). The ratio of the emissions at 665 nm and at […] was taken as the measure for the amount of phosphorylated substrate. The data were normalised (enzyme reaction without inhibitor=0% inhibition, all other assay components but no enzyme=100% inhibition). Usually the test compounds were tested on the same microtiterplate in 11 different concentrations in the range of 20 μM to 0.1 nM (20 μM, 5.9 μM, 1.7 μM, 0.51 μM, 0.15 μM, 44 nM, 13 nM, 3.8 nM, 1.1 nM, 0.33 nM and 0.1 nM, the dilution series prepared separately before the assay on the level of the 100 fold concentrated solutions in DMSO by serial 1:3.4 dilutions) in duplicate values for each concentration and […] were calculated by a 4 parameter fit.

human full-length MKNK1 = target: T2, human full-length MKNK1 (Homo sapiens, UniProt Q9BUB5, T385D); test: MKNK1 kinase high ATP assay (TR-FRET-based); format: biochemical; conditions: ATP final conc. 2 mM, 15 min preincubation, 30 min reaction at 22° C.
T2 construct: purchased Carna Biosciences 02-145; host or cells: insect cells (baculovirus expression system)
T2 sequence (Q9BUB5 1-424 isoform Q9BUB5-2 T344D): as above
Experimental: MKNK1 Kinase High ATP Assay
MKNK1-inhibitory activity at high ATP of compounds of the present invention after their preincubation with MKNK1 was quantified employing the TR-FRET-based MKNK1 high ATP assay as described in the following paragraphs.
as §1, with “human full-length” for “human full-lengt”, “was used,” for “was used”, “e.g. from” for “e.g. form”
as §2, with “3.3 mM=>final” for “16.7 μM=>final”, “2 mM)” for “10 μM)”, “30” for “45”, “0.003 μg/mL.” for “0.05 μg/ml.”
The resulting mixture was incubated for 1 h at 22° C. to allow the formation of complex between the phosphorylated biotinylated peptide and the detection reagents. Subsequently the amount of phosphorylated substrate was evaluated by measurement of the resonance energy transfer from the Eu-chelate to the streptavidine-XL. Therefore, the fluorescence emissions at 620 nm and 665 nm after excitation at 350 nm were measured in a TR-FRET reader, e.g. a Rubystar (BMG Labtechnologies, Offenburg, Germany) or a Viewlux (Perkin-Elmer). The ratio of the emissions at 665 nm and at […] was taken as the measure for the amount of phosphorylated substrate. The data were normalised (enzyme reaction without inhibitor=0% inhibition, all other assay components but no enzyme=100% inhibition).

Compound | IC50 (human full-lengt MKNK1) | IC50 (human full-length MKNK1)
N[C@H]1C[C@H](Oc2ccc3ncc(-c4cc5ncccc5o4)n3n2)C1 [Example 28, trans-3-{[3-(Furo[3,2-b]pyridin-2-yl)imidazo[1,2-b]pyridazin-6-yl]oxy}cyclobutanamine] | 7 nM | 13 nM
COc1nccc2oc(-c3cnc4ccc(OC[C@@H](C)N)nn34)cc12 [Example 3, (2R)-1-{[3-(4-Methoxyfuro[3,2-c]pyridin-2-yl)imidazo[1,2-b]pyridazin-6-yl]-oxy}propan-2-amine] | 11 nM | 27 nM
COc1nccc2oc(-c3cnc4ccc(OC[C@H](N)c5ccccc5)nn34)cc12 [Example 9, (1R)-2-{[3-(4-Methoxyfuro[3,2-c]pyridin-2-yl)imidazo[1,2-b]pyridazin-6-yl]oxy}-1-phenylethanamine] | 48 nM | 94 nM
C[C@H](N)COc1ccc2ncc(-c3cc4c(OCC(C)(C)C)nccc4o3)n2n1 [Example 34, (2S)-1-({3-[4-(2,2-Dimethylpropoxy)furo[3,2-c]pyridin-2-yl]imidazo[1,2-b]-pyridazin-6-yl}oxy)propan-2-amine] | 5 nM | 15 nM
